From patent US20100111965A1, “COMBINATION THERAPY” (FUSION ANTIBODIES LIMITED, priority 2006, published 2010) come the findings set out here.

What all share (assay type): cell-based, human
The subject of one assay is HCT116. Nature of the assay: RT-PCR of AREG RNA in HCT116 cells after chemotherapy. The settings on record: IC50 dose, 48 hours. How it is done:
FIG. 1B illustrates analysis of AREG and beta actin RNA expression in HCT116 +/+ with/without a 48 hour CPT11 treatment. RNA levels were analyzed following 35 cycles of PCR to determine relative differences in expression between treated and untreated samples;
(§1) FIG. 6 illustrates AREG upregulation following chemotherapeutic challenge in A) HT29, B) HCT116 and C) MDA-MB231 cells. Cells were treated with/without chemotherapy for 48 hours. RT-PCR was performed with 1 μg of total RNA using primer pairs specific for the human AREG gene or GAPDH. The PCR products were separated on 1.5% agarose gel electrophoresis and visualized by ethidium bromide staining.
Cells in a log phase of growth were seeded into T75 flask at ˜20% confluence and incubated overnight to allow adherence to the plate. […] Chemotherapy was substituted with saline in control flasks. After different time exposure to chemotherapy the cells were harvested, washed 3 times in PBS and total RNA was isolated using the RNA TAT-60 reagent according to the manufacturer instructions. […]
Semi quantitative RT-PCR was performed using a PTC 225 Gradient Cycler (MJ Research Incorporated. The PCR mixture, in a final volume of 25 μL, contains 12.5 μL of 2× Biomix (Bioline, UK), 2 μL of primers (10 μmol/L), 1 μL of cDNA and 9.5 μL of dH2O). […]

For assay [1], the system named is RKO +/+. Nature of the assay: Semi quantitative RT-PCR of AREG RNA in RKO cells after chemotherapy. As to conditions: 48 h after treatment, 7.5 μM. How it is done: FIG. 1A illustrates analysis of AREG and beta actin RNA expression in RKO +/+ with/without either a 48 hour CPT11 treatment or 5-Fu treatment. RNA levels were analyzed following 35 cycle of PCR to determine relative differences in expression between treated and untreated samples;
Cells in a log phase of growth were seeded into T75 flask at ˜20% confluence and incubated overnight to allow adherence to the plate. […] Chemotherapy was substituted with saline in control flasks. After different time exposure to chemotherapy the cells were harvested, washed 3 times in PBS and total RNA was isolated using the RNA TAT-60 reagent according to the manufacturer instructions.
Reverse transcription was performed with 2.5 μg of RNA using a High Capacity cDNA Archive kit (Applied Biosystem) according to the instruction of the manufacturer.
Semi quantitative RT-PCR was performed using a PTC 225 Gradient Cycler (MJ Research Incorporated. The PCR mixture, in a final volume of 25 μL, contains 12.5 μL of 2× Biomix (Bioline, UK), 2 μL of primers (10 μmol/L), 1 μL of cDNA and 9.5 μL of dH2O). PCR conditions were initial denaturation step of 95 C for 10 minutes, followed by 35 cycles of 95° C. for 30 sec for denaturation; as annealing step 55° C. for 30 sec; and extension at 72° C. for 90 sec, with a final extension of 72° C. for 10 minutes. […]

The test system of another assay is HCT116 +/+. Nature of the assay: Western blot of AREG protein in HCT116 lysates after chemotherapy. The settings on record: HCT116 p53 wild type lysates; 48 hour treatment. As for the experimental part:
(§2) FIG. 2 illustrates western blot analysis of AREG and gamma tubulin protein expression in HCT116 +/+ and RKO +/+ with/without a 48 hour CPT11 or 5-Fu treatment; HCT 116, RKO, HT 29 and H630 are human colorectal carcinoma cell lines. After different time exposure to chemotherapy the cells were harvested, and washed in 1×PBS. The cell pellet was then lysed in a suitable amount of 1×RIPA lysis buffer (150 mM NaCl, 10 mM Tris at pH 7.2, 0.1% SDS, 1.0% triton X-100 and 5 mM.EDTA) supplemented with protease inhibitors. The cell lysate was briefly vortexed, incubated on ice for 10 min and then centrifuged at 12,000 rpm to remove cell debris. Following centrifugation, the lysate supernatant was removed to a fresh eppendorf tube. Protein concentrations were assayed using the BCA Protein Assay (Pierce) according to the manufacturer's instructions. The absorbance of each sample at 620 nm was assayed using a microplate reader. A standard BSA curve was plotted for each experiment and the protein concentration of each sample calculated. To each sample an equal volume of 5× Western sample buffer and 10% of the final volume of β-mercaptoethanol (Sigma) was added. The samples were denatured at 95° C. for 5 minutes and placed on ice prior to loading onto SDS polyacrylamide gel (SDS PAGE). […] Protein bands were detected by exposure to autoradiograph which was subsequently developed. […]

A further assay concerns HCT 116 +/+. Nature of the assay: Confocal microscopy of AREG expression in HCT116 after CPT-11. The settings on record: 24 h and 48 h, compared to untreated controls.
The test system of assay [2] is RKO +/+. Nature of the assay: Western blot of AREG protein in RKO lysates after chemotherapy. As to conditions: RKO p53 wild type lysates; 48 hour treatment. How it is done:
as §2

The subject of assay [3] is HT29 colorectal cancer cells. Nature of the assay: RT-PCR of AREG mRNA in HT29 cells after chemotherapy. As to conditions: IC50 dose, 48 hours. As for the experimental part: as §1
For Example 2, Total RNA was isolated from cells following the RNA STAT-60 manufacturer's protocol (Biogenesis, Poole, U.K.). RT-PCR was performed with 1 μg of total cell RNA using a Promega ImProm-II™ Reverse Transcription System (Promega, Southhampton, UK). PCR was performed using primer pairs specific for human AREG (Forward 5′-[…]-3′(SEQ ID No:19), Reverse 5′-[…]-3′ (SEQ ID No:20)), human HB-EGF (Forward 5′-[…]-3′(SEQ ID No:21), Reverse 5′-[…]-3′(SEQ ID No:22)), human GAPDH as a control (Forward 5′[…]-3′(SEQ ID No:23), Reverse 5′ […]-3′(SEQ ID NO:24)) and human Beta-actin as a control (Forward 5′-[…]-3′(SEQ ID No:25), Reverse 5′-[…]-3′(SEQ ID No:26)).
The PCR products were separated on 1.5% agarose gel and visualized by ethidium bromide staining.

As for `CCc1c2c(nc3ccc(OC(=O)N4CCC(N5CCCCC5)CC4)cc13)-c1cc3c(c(=O)n1C2)COC(=O)[C@]3(O)CC` [CPT-11, irinotecan], the “AREG mRNA expression (RT-PCR)” value (with HCT116; in assay [3]) was “up-regulation” in each case. Moreover, the “AREG RNA expression (RT-PCR)” value with RKO +/+ [1] is given as “upregulation”. Further, the “AREG protein expression (western blot)” value with HCT116 +/+ and with RKO +/+ [2] was “Enhanced AREG expression” throughout. Moreover, the “AREG expression levels (confocal microscopy)” value in the assay on HCT 116 +/+ is recorded as “increasing levels of expression at each time point”.
